Experimental data as given in US9205064B2, “Methods for the diagnosis of oncological disorders using epimetabolic shifters, multidimensional intracellular molecules, or environmental influencers” (Berg LLC, priority 2009, dated 2015).

Experiments:
MCF-7 = experiment: Nexin assay for apoptosis (Annexin-V-PE/7-AAD, flow cytometry); format: cell-based; details: 50 μM and 100 μM Q10, 24 hours
From the text: (§1) The 7AAD dye will enter into cells with permeabilized cell membranes; primarily those cells that are in late apoptosis. Annexin-V-PE is a dye that binds to Phosphotidyl serine, which is exposed on the outer surface of the plasma membrane in early apoptotic cells. The Nexin reagent thus can be used to differentiate between different populations of apoptotic cells in a flow cytometer.

PC-3 = experiment: as above; format: cell-based; details: 50 μM and 100 μM Q10, 24 hours; less than PaCa2
From the text: as §1

SK-MEL28 = experiment: as above; format: cell-based; details: 50 μM and 100 μM Q10, 24 hours
From the text: as §1

SKBr3 = experiment: as above; format: cell-based, human; details: 50 μM or 100 μM Q10, 24 hours
From the text: as §1

SkBr-3 Cells = experiment: Real-time PCR Apoptosis Array; format: cell-based, human; parameters: key: fold change in mRNA level; negative = down-regulation; details: 50 um Q10, 24 hours
Method: (§2) RNA was quantified by measuring Optical Density at 260 nm.
Changes in mRNA levels were evaluated using real-time PCR quantification to assess mRNA levels in pre-selected subsets containing […] pathway specific targets.
For the interpretation of mRNA results, the genes that were altered in their mRNA transcription by a two-fold level were identified and evaluated. The level of gene transcription to produce mRNA only provides a rough estimate of potential changes in the level of the expressed protein. The skilled artisan will appreciate that each mRNA may have different rates at which it is degraded or its translation inefficiently, thus resulting in differing amounts of protein.
The assay method of RT-PCR was utilized to provide a measure of mRNA level changes to a total of 84 apoptotic pathway related proteins.

[1] = tested on: Pancreatic Cancer Cells (PaCa2); experiment: Real-time PCR Apoptosis Array; format: cell-based; details: 100 uM Q10, various times
Method: (§3) Experiments were carried out essentially as described above.

[2] = tested on: HepG2 (liver cancer) cells; experiment: Real-time PCR Apoptosis Array; format: cell-based
Method: (§4) The treatment was initiated on 1×10^5 cells per well, following the procedure utilized in the PaCa2 cells (above, Examples 9-11). However, the total amount of RNA that was extracted from these samples was lower than expected. Reverse transcription is normally done using 1 μg of total RNA (determined by measurement at 260 nm). The maximum volume that can be used per reverse transcription is 8 μl.
However, the array for 48 hours was run choosing FAM as the fluorophore instead of SYBR. Both FAM and SYBR fluoresce at the same wavelength.

SCC cells = experiment: Real-time PCR Diabetes Array; format: cell-based; details: 100 μM Q10, at 6 hours
From the text: The control cells were untreated cells.
as §2

[3] = tested on: HepG2 (liver cancer) cells; experiment: Real-time PCR Diabetes Array; format: cell-based
Method: as §4

[4] = tested on: Pancreatic Cancer Cells (PaCa2); experiment: Real-time PCR Angiogenesis Array; format: cell-based; details: 100 uM Q10, various times
Method: as §3

variety of cell types = experiment: Western blot analysis (Bcl-xL, Vimentin, oxidative phosphorylation complexes, mitochondrial membrane integrity proteins); format: cell-based; details: 50 or 100 μM Q10
Method: Approximately 50 μg of protein were assayed per sample by immunoblotting. All treatments were run in triplicate with controls. […] The primary antibodies were incubated overnight at 4 degrees C. in a 5% BSA and TBST solution. Secondary antibodies were incubated for one hour at 4 degrees. All antibodies were purchased from Cell Signaling Technology. Antibodies were used at a ratio of 1:1000, with the exception of βActin at a ratio of 1:5000. Blots were developed and results were quantified using the NIH Java based densitometer analysis software Image J. All blots were also probed for and normalized to their respective βActin expression.
The first experiment processed and evaluated by Western blot and 2-D gel electrophoresis was carried out on the skin cancer cell line SKMEL-28.
A variety of cell types were evaluated by Western blot analysis against an antibody for Bcl-xL (FIG. 14), an antibody for Vimentin (FIG. 15), a series of antibodies for mitochondrial oxidative phosphorylation function (FIGS. 16-21) and against a series of antibodies related to mitochondrial membrane integrity (FIGS. 22-27).

HASMC cells = experiment: SeaHorse XF analyzer OCR and ECAR; format: cell-based, human; details: hyperglycemic, hypoxic conditions
From the text: Environmental influencers (e.g., MIMs or Epi-shifters) may also be identified by changes in cellular energetics. One example of the measurement of cellular energetics are the real-time measures of the consumption of molecular oxygen and/or the change in pH of the media of a cell culture. For example, the ability of a potential epi-shifter to modulate the metabolic state of a cell may be analyzed using, for example, the XF24 Analyzer (Seahorse, Inc.). This technology allows for real time detection of oxygen and pH changes in a monolayer of cells in order to evaluate the bioenergetics of a cell microenvironment. The XF24 Analyzer measures and compares the rates of oxygen consumption (OCR), which is a measure of aerobic metabolism, and extracellular acidification (ECAR), which is a measure of glycolysis, both key indicators of cellular energetics.
(SeaHorse Biosciences Inc, North Billerica, Mass.).
In this experiment, the OCR and extracellular acidification rate (ECAR) in normal cells lines were obtained in the presence and absence of CoQ10 to determine baseline values. It was observed that in its native nutrient environment, the basal OCR rates in normal cells lines are different, and are usually a function of the physiological roles of the cells in the body. […]
In Table 54 the measured baseline ECAR values (mpH/min) in HASMC were higher compared to that of HDFa. […]

[5] = rats, oral; cited from earlier work

## COC1=C(OC)C(=O)C(C/C=C(\C)CC/C=C(\C)CC/C=C(\C)CC/C=C(\C)CC/C=C(\C)CC/C=C(\C)CC/C=C(\C)CC/C=C(\C)CC/C=C(\C)CCC=C(C)C)=C(C)C1=O [Q10, Coenzyme Q10]
MCF-7
  apoptotic population: increase only in early apoptotic population
PC-3
  early and late apoptotic population: increase
SK-MEL28
  apoptotic population: increase only in early apoptotic population
SKBr3
  early and late apoptosis: did not show any significant increases
SkBr-3 Cells
  APAF1 mRNA Up-Down Regulation: 2.6244
  BAX mRNA Up-Down Regulation: 3.896
  BCL2L1 mRNA Up-Down Regulation: 13.1957
  BCL2L11 mRNA Up-Down Regulation: 4.6012
  BCL2 mRNA Up-Down Regulation: 5.4717
  BIRC6 mRNA Up-Down Regulation: 4.7966
  BNIP2 mRNA Up-Down Regulation: 6.3291
  BRAF mRNA Up-Down Regulation: 4.3832
  HPRT1 mRNA Up-Down Regulation: −160.6748
  XIAP mRNA Up-Down Regulation: 4.3832
[1]
  mRNA of ABL1, AKT1, Bcl2L1, BclAF1, CASP1, CASP2, CASP6, CIDEA, FADD, LTA, TNF, TNFSF10A and TNFSF10: modulated
[2]; 100 μM Q10, gene BAG1
  genes regulated in the Apoptosis Arrays: BAG1
[2]; 100 μM Q10, gene CASP9
  genes regulated in the Apoptosis Arrays: CASP9
[2]; 100 μM Q10, gene TNFRSF1A
  genes regulated in the Apoptosis Arrays: TNFRSF1A
SCC cells
  INPPL1 Regulation: Down regulated at
[3]; 100 μM Q10, PPARGC1A gene
  genes regulated in the Diabetes Arrays: PPARGC1A
[3]; 100 μM Q10, PRKAA1 gene
  genes regulated in the Diabetes Arrays: PRKAA1
[3]; 100 μM Q10, SNAP25 gene
  genes regulated in the Diabetes Arrays: SNAP25
[4]
  mRNA of AKT1, ANGPTL4, ANGPEP, CCL2, CDH4, CXCL1, EDG1, EFNA3, EFNB2, EGF, FGF1, ID3, IL1B, 1L8, KDR, NRP1, PECAM1, PROK2, SERPINF1, SPHK1, STAB1, TGFB1, VEGFA and VEGFB: modulated
Variety of cell types
  levels of examined proteins (Bcl-xL, Vimentin, oxidative phosphorylation and mitochondrial membrane integrity proteins): upregulated or downregulated
HASMC cells
  ECAR rates: downward trend
[5]
  fraction of orally-administered CoQ10 absorbed: 2-3%
